Source: patent publication US9775843B2, “Treatment and/or prophylaxis of TSPO mediated diseases and/or disorders” (GRÜNENTHAL GMBH, priority 2012, dated 2017)

Biological target: T1, rat peripheral BZD receptor (Rattus norvegicus, UniProt P16257)
T1 construct: rat heart membranes and [3H]PK 11195; from tissue; host or cells: rat heart membrane homogenates
Test: radioligand binding test, [3H]PK 11195, rat heart membranes
Conditions: 10 μM test compound; 0.2 nM [3H]PK 11195; rat heart membrane homogenates; 15 min at 22° C.
Experimental: Evaluation of the in vitro affinity of test substances for the rat peripheral BZD receptor was performed according to Le Fur et al. (1983). Life Sci., 33: 449-457. For this purpose, rat heart membranes and [3H]PK 11195 (1-(2-chlorophenyl)-N-methyl-N-(1-methylpropyl)-3-isoquinolinecarboxamide) were used in a radioligand binding test system.
In detail, membrane homogenates of heart (20 μg protein) are incubated for 15 min at 22° C. with 0.2 nM [3H]PK 11195 in the absence or presence of the test compound in a buffer containing 50 mM Tris-HCl (pH 7.4) and 10 mM MgCl2 (96-well plate format). Compound addition is 100× solution in solvent. Nonspecific binding is determined in the presence of 10 μM PK 11195. Following incubation, the samples are filtered rapidly under vacuum through glass fiber filters (GF/B, Packard) presoaked with 0.3% PEI and rinsed several times with ice-cold 50 mM Tris-HCl using a 96-sample cell harvester (Unifilter, Packard). The filters are dried, then counted for radioactivity in a scintillation counter (Topcount, Packard) using a scintillation cocktail (Microscint 0, Packard). The results are expressed as a percent inhibition of the control radioligand specific binding.
The standard reference compound is PK 11195, which is tested in each experiment concurrently with the test compounds.
For analysis, the specific ligand binding to the receptors is defined as the difference between the total binding and the nonspecific binding determined in the presence of an excess of unlabelled ligand. The results are expressed as a percent of control specific binding ((measured specific binding/control specific binding)×100) obtained in the presence of the test compounds.

Compound	inhibition at 10 µM [%]
CCSc1nc(N2CCOCC2)cc(C)c1C(=O)NCCCC(C)(C)C [compound 2, N-(4,4-Dimethyl-pentyl)-2-ethylsulfanyl-4-methyl-6-morpholin-4-yl-pyridine-3-carboxylic acid amide]	43
CCSc1nc(N2CCOCC2)cc(C)c1C(=O)NCc1ccc(Cl)cc1 [compound 3, N-[(4-Chlorophenyl)-methyl]-2-ethylsulfanyl-4-methyl-6-morpholin-4-yl-pyridine-3-carboxylic acid amide]	91
COc1nc(N2CCOCC2)cc(C)c1C(=O)NCc1ccc(Cl)cc1 [compound 4, N-[(4-Chlorophenyl)-methyl]-2-methoxy-4-methyl-6-morpholin-4-yl-pyridine-3-carboxylic acid amide]	49
Cc1cc(N2CCOCC2)nc(C2CC2)c1C(=O)NCc1ccc(Cl)cc1 [compound 7, N-[(4-Chlorophenyl)-methyl]-2-cyclopropyl-4-methyl-6-morpholin-4-yl-pyridine-3-carboxylic acid amide]	57
COc1nc(N2CCOCC2)cc(C)c1C(=O)NCc1cccc(F)c1 [compound 8, N-[(3-Fluorophenyl)-methyl]-2-methoxy-4-methyl-6-morpholin-4-yl-pyridine-3-carboxylic acid amide]	103
CCCc1nc(N2CCOCC2)cc(C)c1C(=O)NCc1cccc(F)c1 [compound 10, N-[(3-Fluorophenyl)-methyl]-4-methyl-6-morpholin-4-yl-2-propyl-pyridine-3-carboxylic acid amide]	91
Cc1cc(N2CCOCC2)nc(C2CC2)c1C(=O)NCc1ccc(F)cc1 [compound 11, 2-Cyclopropyl-N-[(4-fluorophenyl)-methyl]-4-methyl-6-morpholin-4-yl-pyridine-3-carboxylic acid amide]	87
Cc1cc(N2CCOCC2)nc(C2CC2)c1C(=O)NCc1cccc(F)c1 [compound 15, 2-Cyclopropyl-N-[(3-fluorophenyl)-methyl]-4-methyl-6-morpholin-4-yl-pyridine-3-carboxylic acid amide]	90

Other lines, results leading:

inhibition at 10 µM [%]	Compound
87	Cc1c(C(=O)NCc2cccc(F)c2)c(C(C)C)nc2cc(C(F)(F)F)ccc12 [compound 1, N-[(3-Fluorophenyl)-methyl]-2-isopropyl-4-methyl-7-(trifluoromethyl)-quinoline-3-carboxylic acid amide]
102	O=C(NCc1ccc(F)cc1)c1cccnc1SCCC(F)(F)c1ccc(F)cc1 [compound 5, 2-[[3,3-Difluoro-3-(4-fluorophenyl)-propyl]sulfanyl]-N-[(4-fluorophenyl)-methyl]-pyridine-3-carboxylic acid amide]
99	O=C(NCC1CC2CCC1C2)c1cccnc1SCCC(F)(F)c1ccc(F)cc1 (stereo not drawn) [compound 6, N-(5-Bicyclo[2.2.1]heptanyl-methyl)-2-[[3,3-difluoro-3-(4-fluorophenyl)-propyl]sulfanyl]-pyridine-3-carboxylic acid amide]
53	COc1nc(N2CCOCC2)cc(C)c1C(=O)NCc1ccc(F)cc1 [compound 9, N-[(4-Fluorophenyl)-methyl]-2-methoxy-4-methyl-6-morpholin-4-yl-pyridine-3-carboxylic acid amide]
97	CC(C)CCNC(=O)c1cccnc1SCCC(F)(F)c1ccc(F)c(F)c1 [compound 12, 2-[[3-(3,4-Difluoro-phenyl)-3,3-difluoro-propyl]-sulfanyl]-N-(3-methyl-butyl)-pyridine-3-carboxylic acid amide]
95	CCSc1nc(N2CCOCC2)cc(C)c1C(=O)NCc1cccc(F)c1 [compound 13, 2-Ethylsulfanyl-N-[(3-fluorophenyl)-methyl]-4-methyl-6-morpholin-4-yl-pyridine-3-carboxylic acid amide]
96	CC(C)CCNC(=O)c1cccnc1SCCC(F)(F)c1ccc(F)cc1 [compound 16, 2-[[3,3-Difluoro-3-(4-fluorophenyl)-propyl]sulfanyl]-N-(3-methyl-butyl)-pyridine-3-carboxylic acid amide]
